Data taken from BindingDB's records for doi:10.7270/Q2TX3CSC (Vanderbilt Screening Center for GPCRs, Ion Channels and …, 2009).
pEC50: −log10 of the molar value.

The compounds below were run against T1, Solute carrier family 12 member 5 (Homo sapiens, UniProt Q9H2X9) (assay: concentration-response of KCC2 transport modulators – cell-based, HEK293 KCC2, FluoZin-2 fluorescence, dose response (AID 1736)). Details: not given.
T1 sequence (Q9H2X9 whole entry): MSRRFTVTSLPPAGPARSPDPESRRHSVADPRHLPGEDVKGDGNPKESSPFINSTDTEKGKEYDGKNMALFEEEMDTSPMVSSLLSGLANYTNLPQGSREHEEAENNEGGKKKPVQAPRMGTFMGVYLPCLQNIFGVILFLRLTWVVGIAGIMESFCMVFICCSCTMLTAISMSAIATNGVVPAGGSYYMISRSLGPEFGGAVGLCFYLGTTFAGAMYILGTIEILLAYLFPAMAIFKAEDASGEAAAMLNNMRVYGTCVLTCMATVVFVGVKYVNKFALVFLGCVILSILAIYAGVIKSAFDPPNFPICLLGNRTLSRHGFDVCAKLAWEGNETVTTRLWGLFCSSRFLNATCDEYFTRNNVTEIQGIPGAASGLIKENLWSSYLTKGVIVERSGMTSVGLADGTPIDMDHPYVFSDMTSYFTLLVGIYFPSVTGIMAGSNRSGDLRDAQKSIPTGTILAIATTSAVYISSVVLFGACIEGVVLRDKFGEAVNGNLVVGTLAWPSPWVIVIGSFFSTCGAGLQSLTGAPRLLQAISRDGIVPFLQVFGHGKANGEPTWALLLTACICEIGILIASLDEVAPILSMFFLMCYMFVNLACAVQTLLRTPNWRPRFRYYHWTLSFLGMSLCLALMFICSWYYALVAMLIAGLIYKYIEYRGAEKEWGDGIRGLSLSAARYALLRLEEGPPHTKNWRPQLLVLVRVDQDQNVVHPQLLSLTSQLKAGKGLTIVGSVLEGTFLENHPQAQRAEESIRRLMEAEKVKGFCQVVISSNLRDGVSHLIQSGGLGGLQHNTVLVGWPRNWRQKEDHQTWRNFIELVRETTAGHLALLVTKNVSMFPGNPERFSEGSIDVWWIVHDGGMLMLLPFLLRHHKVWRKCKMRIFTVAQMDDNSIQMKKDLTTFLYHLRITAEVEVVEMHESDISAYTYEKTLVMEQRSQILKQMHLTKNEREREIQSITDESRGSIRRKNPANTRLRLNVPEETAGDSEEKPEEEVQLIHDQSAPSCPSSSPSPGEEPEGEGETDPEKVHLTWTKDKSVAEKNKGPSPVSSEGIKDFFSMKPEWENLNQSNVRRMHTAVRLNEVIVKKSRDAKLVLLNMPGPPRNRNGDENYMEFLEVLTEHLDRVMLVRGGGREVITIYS

| Structure (SMILES) | pEC50 |
| --- | --- |
| Cc1nn(C)c(C)c1C=C1SC(S)=NC1=O [MLS000324943] | 4.29 |
| CCn1c(SCC(=O)Nc2ccc(Cl)cc2)nc2nc3c(cc2c1=O)CCCC3 [MLS000589154] | 4.55 |
| O=C(O)/C=C/c1cn(Cc2ccccc2)nc1-c1ccccc1 [MLS000567315] | 5.42 |
| O=C(NCCc1c[nH]c2ccccc12)c1cc(S(=O)(=O)N2CCCCC2)ccc1N1CCOCC1 [N-[2-(1H-indol-3-yl)ethyl]-2-morpholin-4-yl-5-piperidin-1-ylsulfonylbenzamide] | 3.68 |
| CCN(CC)c1ccc2c(C)c(-c3ccc(N)cc3)c(=O)oc2c1 [3-(4-aminophenyl)-7-(diethylamino)-4-methyl-1-benzopyran-2-one] | 6.01 |
| Cc1ccc(-c2n[nH]c(=S)n2NC=CCc2ccccc2[N+](=O)[O-])cc1 | 5.79 |
| COc1ccc(-c2cc(CNC(=O)CN(C)Cc3ccccc3)on2)cc1 [2-[benzyl(methyl)amino]-N-[[3-(4-methoxyphenyl)-1,2-oxazol-5-yl]methyl]acetamide] | 5.28 |
| O=C(CNC(=O)/C(=C/c1ccccc1)NC(=O)c1ccc(Br)cc1)OCc1ccccc1 [(phenylmethyl) 2-[[(Z)-2-[(4-bromophenyl)carbonylamino]-3-phenyl-prop-2-enoyl]amino]ethanoate] | 5.94 |
| CC(=O)NCC1CCCN(c2nc3nonc3nc2N(C)Cc2ccccc2)C1 (configuration not stated) [MLS000731683] | 5.57 |
| CCCCNc1cc(C(=O)O)cc(S(N)(=O)=O)c1Oc1ccccc1 [Fordiuran] | 10.33 |
| CCOc1cc(S(=O)(=O)NCc2ccccc2)ccc1F [3-ethoxy-4-fluoranyl-N-(phenylmethyl)benzenesulfonamide] | 5.23 |
| COc1cc(OC)c(C2=NOC(C(=O)N3CCc4ccccc4C3)C2)cc1Cl (configuration not stated) [2-{[3-(5-chloro-2,4-dimethoxyphenyl)-4,5-dihydro-5-isoxazolyl]carbonyl}-1,2,3,4-tetrahydroisoquinoline] | 5.18 |
| Fc1cccc(F)c1C=NNC(=S)Nc1cccnc1 [1-[(2,6-difluorobenzylidene)amino]-3-(3-pyridyl)thiourea] | 5.16 |
| O=C(Cn1cnc2c(nnn2Cc2ccc(F)cc2)c1=O)N1CCN(c2ccccc2)CC1 [3-(4-fluorobenzyl)-6-[2-keto-2-(4-phenylpiperazino)ethyl]triazolo[4,5-d]pyrimidin-7-one] | 4.70 |
| COc1ccc(S(=O)(=O)N(C)CC(=O)N2CCN(Cc3ccccc3)CC2)cc1C [4-methoxy-N,3-dimethyl-N-[2-oxidanylidene-2-[4-(phenylmethyl)piperazin-1-yl]ethyl]benzenesulfonamide] | 5.83 |
| O=C(c1cc2c(s1)-c1ccccc1OC2)N1CCC2(CC1)OCCO2 [1,4-dioxa-8-azaspiro[4.5]decan-8-yl(4H-thieno[3,2-c][1]benzopyran-2-yl)methanone] | 4.60 |
| O=C(Cn1cnc2c(nnn2-c2ccccc2)c1=O)NCCc1ccccc1 [2-(7-keto-3-phenyl-triazolo[4,5-d]pyrimidin-6-yl)-N-phenethyl-acetamide] | 4.56 |
| COc1cccc(Nc2nnc(S)s2)c1 [5-(3-methoxyanilino)-3H-1,3,4-thiadiazole-2-thione] | 5.52 |
| CC1Cc2ccccc2N1C(=O)c1ccc(N2CCCCC2)c([N+](=O)[O-])c1 (configuration not stated) [(2-methyl-2,3-dihydroindol-1-yl)-(3-nitro-4-piperidin-1-yl-phenyl)methanone] | 6.04 |
| Cc1ccc(C2=CSC3=NNC4(CCCCC4)NN23)cc1 [SMR000306481] | 5.60 |

| Structure (SMILES) | pEC50 |
| --- | --- |
| Cc1ccc(NC(=O)CCCSc2ccccc2)cc1S(=O)(=O)N1CCOCC1 [MLS000761060] | 5.17 |
| CC[C@H](CO)Nc1nc(Nc2cccc(Cl)c2)c2ncn(C(C)C)c2n1 [(R)-2-(6-(3-chlorophenylamino)-9-isopropyl-9H-purin-2-ylamino)butan-1-ol] | 5.02 |
| COc1ccc(C(=O)N2CCCC(c3ccccc3)C2)cc1 (configuration not stated) [(4-methoxyphenyl)-(3-phenyl-1-piperidinyl)methanone] | 5.14 |
| c1ccc(-n2cnc3cc(NCc4ccncc4)ccc32)cc1 [(1-phenylbenzimidazol-5-yl)-(4-pyridylmethyl)amine] | 5.72 |
| c1ccc(-c2csc(N=NCc3ccco3)n2)cc1 [(2-furfurylideneamino)-(4-phenylthiazol-2-yl)amine] | 4.82 |
| Sc1nnc(Cc2cccc3ccccc23)o1 [5-(1-naphthalenylmethyl)-3H-1,3,4-oxadiazole-2-thione] | 6.52 |
| Cc1ccc(C(=O)Nc2nc(=O)n(C(=O)c3ccccc3Cl)s2)cc1 [MLS000540480] | 5.43 |
| O=C(O)CCN(Cc1ccccc1)S(=O)(=O)c1c(Cl)cccc1Cl [3-[(2,6-dichlorophenyl)sulfonyl-(phenylmethyl)amino]propanoic acid] | 4.23 |
| O=C(NC(=S)NNC(=O)c1cnccn1)c1ccc(Cl)cc1 [4-Chloro-N-[N'-(pyrazine-2-carbonyl)-hydrazinocarbothioyl]-benzamide] | 4.63 |
| Cc1n[nH]c(O)c1C(c1ccc(-c2ccc(F)cc2)o1)c1c(C)n[nH]c1O [4-[[5-(4-fluorophenyl)furan-2-yl]-(3-methyl-5-oxo-1,2-dihydropyrazol-4-yl)methyl]-5-methyl-1,2-dihydropyrazol-3-one] | 5.08 |
| CNc1ccc(/C=C(\CCC(=O)O)c2nc3ccccc3s2)cc1[N+](=O)[O-] [MLS000394200] | 4.61 |
| COc1ccccc1C(=O)NC1CCN(C(=S)NCCc2ccccc2)CC1 [2-methoxy-N-[1-(2-phenylethylcarbamothioyl)piperidin-4-yl]benzamide] | 5.18 |
| Cc1ccc2[nH]c(=O)c(CN(CCc3ccccc3)Cc3nnnn3CC3CCCO3)cc2c1 (configuration not stated) [SMR000003177] | 5.37 |
| Cc1ccc(S(=O)(=O)N(CCC(=O)O)Cc2ccc(Cl)cc2)cc1 [3-[(4-chlorobenzyl)-tosyl-amino]propionic acid] | 6.31 |
| CSc1ccccc1N=C(S)Nc1ccc(S(N)(=O)=O)cc1 [1-(2-methylsulfanylphenyl)-3-(4-sulfamoylphenyl)thiourea] | 4.42 |
| O=C(NCC1CCCN(C(=O)c2cccnc2)C1)c1ccc(-c2ccccc2)cc1 (configuration not stated) [4-phenyl-N-[(1-pyridin-3-ylcarbonylpiperidin-3-yl)methyl]benzamide] | 5.55 |
| O=C(Cn1nnc2c(cnn2-c2ccccc2)c1=O)N1CCN(c2ccccc2F)CC1 [3-[2-[4-(2-fluorophenyl)-1-piperazinyl]-2-oxoethyl]-7-phenyl-4-pyrazolo[3,4-d]triazinone] | 3.83 |
| CN(CC(=O)N1CCN(Cc2ccccc2)CC1)S(=O)(=O)c1cccc2nsnc12 [MLS000674627] | 6.24 |
| O=C(CN1C(=O)NC2(CCCC2)C1=O)Nc1nc(-c2ccc(F)cc2)cs1 [2-(2,4-diketo-1,3-diazaspiro[4.4]nonan-3-yl)-N-[4-(4-fluorophenyl)thiazol-2-yl]acetamide] | 7.16 |

Same assay, conditions: inactive by the depositor's call

| Structure (SMILES) | pEC50 |
| --- | --- |
| CCOc1ccccc1CNC(=O)C1CCN(c2nc3ccccc3o2)CC1 [1-(1,3-benzoxazol-2-yl)-N-(2-ethoxybenzyl)isonipecotamide] | 4.02 |
| Cc1ccc(Nc2nnc(SCC(=O)c3cc4ccccc4o3)s2)cc1C [1-(1-benzofuran-2-yl)-2-[[5-(3,4-dimethylanilino)-1,3,4-thiadiazol-2-yl]sulfanyl]ethanone] | 7.07 |
| COc1ccc(Nc2nnc(SCc3cc(=O)n4ccsc4n3)s2)cc1 [7-[[5-(4-methoxyanilino)-1,3,4-thiadiazol-2-yl]sulfanylmethyl]-[1,3]thiazolo[3,2-a]pyrimidin-5-one] | 2.05 |
| COc1ccccc1-c1nc(C#N)c(N2CCC(Cc3ccccc3)CC2)o1 [2-(2-methoxyphenyl)-5-[4-(phenylmethyl)-1-piperidinyl]-4-oxazolecarbonitrile] | 6.13 |
| COC(=O)[C@@H](NC(=O)O[C@@H]1C(=O)c2cc(Br)ccc2O[C@H]1c1cccc(OC)c1)C(C)C [(2S)-2-[[(2S,3S)-6-bromo-4-keto-2-(3-methoxyphenyl)chroman-3-yl]oxycarbonylamino]-3-methyl-butyric acid methyl ester] | 4.47 |
| Cn1cc(SCC(=O)N2CCN(c3ccccc3)CC2)c2ccccc21 [2-(1-methylindol-3-yl)sulfanyl-1-(4-phenylpiperazin-1-yl)ethanone] | 4.11 |
| Fc1ccccc1CSc1nncn1NC/C=C/c1ccccc1 [3-[(2-fluorophenyl)methylsulfanyl]-N-[(E)-3-phenylprop-2-enyl]-1,2,4-triazol-4-amine] | 7.25 |
| O=C(CSc1nnnn1-c1ccccc1)Nc1nsc(-c2ccccc2)n1 [2-(1-phenyltetrazol-5-yl)sulfanyl-N-(5-phenyl-1,2,4-thiadiazol-3-yl)acetamide] | 5.85 |
